The source of these data is paper PMC11566907, “Accelerated hit identification with target evaluation, deep learning and automated labs: prospective validation in IRAK1” (Journal of Cheminformatics, 2024).

Read-outs that look alike come from different tables or passages of the source.

In test [1] the target is T1, IRAK1 (Homo sapiens, UniProt P51617).
T1 construct: purchased BPS Bioscience Inc. 40202
Put plainly: LanthaScreen Eu Kinase Binding Assay for IRAK1, hit dose-response assay (DRC). Particulars: for DRC result, activity class: class by pIC50 value. From the text: The experimental method of LanthaScreen^TM Eu Kinase Binding Assay for IRAK1 was developed based on the Invitrogen^TM IRAK1-GST LanthaScreen^TM binding assay. Purified recombinant IRAK1-His (cat. # 40202) was purchased from BPS Bioscience Inc. (San Diego, CA, USA). Kinase tracer 236 (cat. # PR9078A) was purchased from Thermo Fisher Scientific Inc. (Waltham, MA, USA). Eu-W1024-anti-6xHis antibody (cat. #AD0400) and 384-well white ProxiPlates^TM (cat. # 6008289) were purchased from Perkin Elmer, Inc. (Waltham, MA, USA). Echo-qualified 384 well COC low dead volume source microplates (cat. #001-16128) and Echo-qualified 384 well polypropylene microplates (cat. #001-14615) were purchased from Beckman Coulter Inc.(Indianapolis, IN, USA). The assay was carried out in an enclosed workcell with subdued lighting. All reagents were prepared in the assay buffer (50 mM HEPES, 10 mM MgCl 2 , 1 mM EGTA, 0.01% Brij-35, 1 mM DTT) and kept on ice. These included 2 x tracer 236 (0.2 μ M), 2 x IRAK1 /antibody solution (20 nM IRAK1-His, 4 nM Eu-W1024-anti-6xHis antibody) and 2 x antibody solution (4 nM Eu-W1024-anti-6xHis antibody). Five microliters of 2 x tracer 236 was dispensed into a 384-well white ProxiPlate^TM, followed by either 5 μ l of 2 x IRAK1/antibody solution or 5 μ l of 2 x antibody solution on a Tempest® dispenser (Formulatrix, Inc., Bedford, MA, USA). The plate was sealed on a Wasp plate sealer (KBiosciences Limited, Basildon, Essex, UK) and centrifuged at 1000 x g for 15 s on a HiG^TM automated centrifuge (BioNex Solutions Inc., San Jose, CA, USA) and incubated at room temperature for 30 min. The plate was then peeled and read on a PHERAstar® FSX (BMG LABTECH Inc., Cary, NC, USA) with a LanthaScreen^TM module at 340/615, 665 nm. The TR-FRET ratio (acceptor emission/donor emission x 10,000) was used as the readout.
A dose-response assay was conducted for each of the compound in the diversified set of 283 hits. Each compound was assayed in an 8-point curve with approximately 4-fold dilutions (subject to Echo dispense volume limits), starting at 30 μ M, and the assays were run in triplicates. The exact concentrations are 30, 7.5, 1.875, 0.469, 0.117, 0.029, 0.007, 0.002 μM . In each plate, three replicates of a staurosporine titration curve starting at 3 μ M were assayed in parallel as a reference.
The IC 50 of each dose-response curve was derived by fitting a four-parameter logistic (4PL) model, shown in Eq. 3, where the respective variables are defined as follows: • A : Minimum asymptote. Response value when x approaches infinity. • D : Maximum asymptote. Response value when x is very small or close to zero. • B : Slope factor (Hill’s slope). Steepness of the curve. • C : Inflection point. The concentration of the analyte that gives half-maximal response. 3 f(x)=A+D-A/1+x/C^B The 4PL model was fitted for each compound with data points for all three replicates all at once. As an additional quality control, 4PL regression models for all sub-micromolar compounds were manually inspected. Computed IC 50 were capped within the range of measured concentrations. In seven cases, where curve fits were erroneous and produced IC 50 values above assay sensitivity range, IC 50 values were reduced to the highest concentration used in the assay (30 μ M).

The target in test [2] is T1, IRAK1. The settings on record: read-out: affinity; cited from earlier work.
The mark [3] stands for this setting: 8-point curve from 30 μM, triplicates, 4PL fit, read-out: DRC result, IC50.
The mark [4] stands for this setting: 8-point curve from 30 μM, triplicates, 4PL fit, read-out: DRC result, pIC50 (converted).

T1 sequence (P51617 whole entry): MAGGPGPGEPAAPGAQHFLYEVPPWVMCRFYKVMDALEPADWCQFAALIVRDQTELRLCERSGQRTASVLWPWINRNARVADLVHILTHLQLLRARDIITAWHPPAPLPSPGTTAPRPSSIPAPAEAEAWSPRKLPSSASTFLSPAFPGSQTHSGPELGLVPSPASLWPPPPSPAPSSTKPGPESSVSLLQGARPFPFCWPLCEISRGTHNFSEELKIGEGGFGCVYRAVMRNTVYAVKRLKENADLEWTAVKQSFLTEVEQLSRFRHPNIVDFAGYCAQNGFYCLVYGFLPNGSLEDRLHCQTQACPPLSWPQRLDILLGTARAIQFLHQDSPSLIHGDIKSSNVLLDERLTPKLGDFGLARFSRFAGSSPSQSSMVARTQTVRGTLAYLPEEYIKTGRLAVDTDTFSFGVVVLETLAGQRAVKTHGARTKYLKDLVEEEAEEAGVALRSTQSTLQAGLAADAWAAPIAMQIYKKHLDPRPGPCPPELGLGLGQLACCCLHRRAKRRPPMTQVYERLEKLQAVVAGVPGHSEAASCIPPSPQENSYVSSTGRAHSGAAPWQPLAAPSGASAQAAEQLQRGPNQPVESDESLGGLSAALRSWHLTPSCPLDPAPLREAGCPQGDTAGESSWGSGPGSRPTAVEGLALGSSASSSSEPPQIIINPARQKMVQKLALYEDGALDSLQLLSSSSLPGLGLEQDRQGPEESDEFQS

Consider `CNc1cc2c(cn1)cc(-c1ccc(F)c(NC(=O)Nc3cc(C(C)(C)C)nn3C)c1)c(=O)n2C(C)C` [A1], for which the IC50 is 90 nM on IRAK1 [1] (setting [3]) and 91.2 nM at IRAK1 [1] (setting [4]). In addition, the “DRC result, activity class” value on IRAK1 [1] is recorded as “nanomolar”.

For the compound `Cc1nc(Nc2ncc(F)c(-c3cc(F)c4nc(C)n(C(C)C)c4c3)n2)ccc1N1CCN(C(C)C)CC1` [B1], the results for the IC50 on IRAK1 [1] (setting [3]) and at IRAK1 [1] (setting [4]) were 20 nM and 19.1 nM, respectively. For the same compound, the “DRC result, activity class” value at IRAK1 [1] was “nanomolar”.

In the case of `CCN1CCN(Cc2ccc(Nc3ncc(F)c(-c4cc(F)c5nc(C)n(C6CC6)c5c4)n3)nc2)CC1` [B2], the results for the IC50 on IRAK1 [1] (setting [3]) and on IRAK1 [1] (setting [4]) were 60 nM and 63.1 nM, respectively. For the same compound, the “DRC result, activity class” value at IRAK1 [1] was “nanomolar”.

In the case of `CC(C)(C)c1cc(NC(=O)NCc2ccc(-c3cnc4cc(-c5ccncc5)ccn34)cc2)n[nH]1` [C1], the “DRC result, pIC50” value at IRAK1 [1] (8-point curve from 30 μM, triplicates, 4PL fit) worked out at 7.00. In addition, at IRAK1 [1] (setting [3]), the IC50 stood at 100 nM. Besides, the “DRC result, activity class” value on IRAK1 [1] is “nanomolar”.

Take `CC(C)Cc1ccnc(NC(=O)Cc2ccc(-c3cnc4cc(-c5ccncc5)ccn34)cc2F)c1` [C2]: the IC50 on IRAK1 [1] (setting [3]) was 50 nM; at IRAK1 [1] (setting [4]), 52.5 nM. Further, at IRAK1 [1], the “DRC result, activity class” value is recorded as “nanomolar”.

Regarding `C=CC(=O)Nc1cccc(C(=O)Nc2ccc(NC(=O)c3cccc(-c4ccn[nH]4)n3)cc2)c1` [JH-X-119-01], the IC50 on IRAK1 [2] is 9 nM.
